Measurements reported in patent US5817800A, “Inhibitors of β-glucuronidase and their use in the treatment of carcinamatosis and inflammation” (Hoechst Aktiengesellschaft, priority 1996, dated 1998).
Structures can show the parent of a compound that is named as a salt.

Target: T1, human β-glucuronidase (Homo sapiens, UniProt P08236)
T1 sequence (P08236 23-651): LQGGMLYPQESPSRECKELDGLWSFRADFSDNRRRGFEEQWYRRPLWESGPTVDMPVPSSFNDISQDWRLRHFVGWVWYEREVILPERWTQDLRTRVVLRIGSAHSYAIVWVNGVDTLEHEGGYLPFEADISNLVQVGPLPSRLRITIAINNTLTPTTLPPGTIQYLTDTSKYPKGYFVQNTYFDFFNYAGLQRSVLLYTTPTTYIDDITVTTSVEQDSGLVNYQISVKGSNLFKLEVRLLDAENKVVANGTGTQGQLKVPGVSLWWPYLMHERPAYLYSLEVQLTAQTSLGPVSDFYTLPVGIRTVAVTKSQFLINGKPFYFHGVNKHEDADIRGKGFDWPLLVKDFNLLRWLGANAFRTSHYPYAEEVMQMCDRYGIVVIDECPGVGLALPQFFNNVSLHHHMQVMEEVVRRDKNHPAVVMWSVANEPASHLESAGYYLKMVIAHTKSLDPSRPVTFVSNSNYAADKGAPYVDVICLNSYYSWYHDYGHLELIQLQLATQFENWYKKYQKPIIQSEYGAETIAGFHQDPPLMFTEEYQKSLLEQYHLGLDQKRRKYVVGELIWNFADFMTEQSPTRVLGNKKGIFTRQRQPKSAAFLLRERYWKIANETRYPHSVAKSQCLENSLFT
Assay: Inhibition of human β-glucuronidase (4-methylumbelliferyl-β-D-glucuronide substrate, fluorescence)
Type: biochemical
Settings: substrate 4-methylumbelliferyl-β-D-glucuronide; 200 mM sodium acetate, 0.1 mg/ml BSA, pH 5; 10 min, 37° C.
Experimental: The inhibition of human β-glucuronidase was determined using 4-methylumbelliferyl-β-D-glucuronide as a substrate. The test mixture contained 75 μl of 2.5 mM 4-methylumbelliferyl-β-D-glucuronide, 25 μl of enzyme (0.6 μg/ml) and 10 μl of the compound of the formula I in a concentration range from 0.0001 to 100 mM, all in 200 mM sodium acetate buffer and 0.1 mg/ml bovine serum albumin (BSA), pH 5. After a 10-minute incubation at 37° C., the mixture was stopped with 1.5 ml of 0.2 M glycine/0.2% SDS, pH 11.7. The methylumbelliferone released by the enzyme was measured in a fluorescence photometer at 360 nm excitation and 450 nm emission wavelength.
The IC50 -values were calculated from the inhibitor dilution series using the software program GraFit 2.0 (Erithacus Software Ltd.).

| IC50 [mM] | SMILES |
| --- | --- |
| 0.0006 | O=C(Nc1ccccc1)O/N=C1\O[C@H](C(=O)O)[C@@H](O)[C@H](O)[C@H]1O [Example 1, (Z)-O-(D-Glucopyranuronosylidene)amino N-phenylcarbamate (sodium salt)] |
| 11 | O=C(Nc1ccccc1)O/N=C1\O[C@H](P(=O)(O)O)[C@@H](O)[C@H](O)[C@H]1O [Example 2, Sodium (5R,Z)-O-(5-C-phosphonato-D-xylopyranosylidene) amino N-phenylcarbamate] |
